From publication PMC10817531, “Chlorinated Enyne Fatty Acid Amides from a Marine Cyanobacterium: Discovery of Taveuniamides L-M and Pharmacological Characterization of Taveuniamide F as a GPCR Antagonist with CNR1 Selectivity” (Marine Drugs, 2023)
Where “and” joins values, the source holds several entries; their conditions need not be identical. Equal values may be shown once.

Tests used:
CCR9 = target: T1, CCR9 (Homo sapiens, UniProt P51686); assay: PathHunter β-arrestin GpcrMAX assay; type: cell-based
T1 construct: host or cells: CHO-K1
T1 sequence (P51686 1-369): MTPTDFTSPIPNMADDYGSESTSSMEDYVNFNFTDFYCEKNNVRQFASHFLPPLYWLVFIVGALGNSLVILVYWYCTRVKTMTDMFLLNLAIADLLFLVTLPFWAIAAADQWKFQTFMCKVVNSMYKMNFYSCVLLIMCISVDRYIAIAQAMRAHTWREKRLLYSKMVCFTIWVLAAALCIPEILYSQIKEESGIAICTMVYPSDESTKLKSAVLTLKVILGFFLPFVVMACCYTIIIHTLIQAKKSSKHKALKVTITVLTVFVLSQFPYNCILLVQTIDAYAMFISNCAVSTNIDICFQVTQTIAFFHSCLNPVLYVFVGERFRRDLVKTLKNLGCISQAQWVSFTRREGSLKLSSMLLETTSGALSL
Procedure: (§1) GpcrMAX panel biosensor assays were used to characterize taveuniamide F (4, 20 µM) (agonist and antagonist mode). The experiments were carried out by DiscoveRx Corporation (Fremont, CA, USA) as described before, using PathHunter β-arrestin enzyme fragment complementation (EFC) technology.
(§2) Dose–response curves were obtained by subjecting taveuniamide F (4) to a secondary antagonist screen utilizing ten GPCR biosensor assays (Arrestin) against the following targets: GPR119, NPSR1b, HTR2C, CCR9, CHRM4, GPR120, HTR2A, GPR103, CNR1, and CNR2. Stably transfected HEK293 cells expressing GPR119, U2OS cells expressing NPSR1b, HTR2C and HTR2A, and CHO-K1 cells expressing the rest of the mentioned receptors, were incubated with 4 for 30 min. The assays were performed at 10-point concentrations using 3-fold serial dilutions in duplicate, where the highest concentration was 50 µM.

CHRM4 = target: T2, CHRM4 (Homo sapiens, UniProt P08173); assay: PathHunter β-arrestin GpcrMAX assay; type: cell-based
T2 construct: host or cells: CHO-K1
T2 sequence (P08173 1-479): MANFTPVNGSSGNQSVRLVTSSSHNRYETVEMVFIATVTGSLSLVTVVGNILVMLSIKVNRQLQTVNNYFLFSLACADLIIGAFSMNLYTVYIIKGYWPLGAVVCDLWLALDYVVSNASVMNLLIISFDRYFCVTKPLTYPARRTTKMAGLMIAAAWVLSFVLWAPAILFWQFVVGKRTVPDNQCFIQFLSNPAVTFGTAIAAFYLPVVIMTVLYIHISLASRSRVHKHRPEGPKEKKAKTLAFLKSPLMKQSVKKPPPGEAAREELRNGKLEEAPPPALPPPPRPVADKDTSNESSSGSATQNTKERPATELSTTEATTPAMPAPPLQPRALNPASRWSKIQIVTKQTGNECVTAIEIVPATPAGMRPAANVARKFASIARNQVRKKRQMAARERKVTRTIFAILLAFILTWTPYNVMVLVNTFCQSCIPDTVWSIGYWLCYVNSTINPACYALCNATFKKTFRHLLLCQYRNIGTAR
Procedure: as §1, §2

CNR2 = target: T3, CNR2 (Homo sapiens, UniProt P34972); assay: PathHunter β-arrestin GpcrMAX assay; type: cell-based
T3 construct: purchased DiscoveRx (Eurofins) gpcrMAX PathHunter β-arrestin panel
Procedure: as §1, §2

HTR2C = target: T4, HTR2C (Homo sapiens, UniProt P28335); assay: PathHunter β-arrestin GpcrMAX assay; type: cell-based
T4 construct: β-galactosidase enzyme fragment for EFC (ProLink by own knowledge); host or cells: U2OS
T4 sequence (P28335 33-458): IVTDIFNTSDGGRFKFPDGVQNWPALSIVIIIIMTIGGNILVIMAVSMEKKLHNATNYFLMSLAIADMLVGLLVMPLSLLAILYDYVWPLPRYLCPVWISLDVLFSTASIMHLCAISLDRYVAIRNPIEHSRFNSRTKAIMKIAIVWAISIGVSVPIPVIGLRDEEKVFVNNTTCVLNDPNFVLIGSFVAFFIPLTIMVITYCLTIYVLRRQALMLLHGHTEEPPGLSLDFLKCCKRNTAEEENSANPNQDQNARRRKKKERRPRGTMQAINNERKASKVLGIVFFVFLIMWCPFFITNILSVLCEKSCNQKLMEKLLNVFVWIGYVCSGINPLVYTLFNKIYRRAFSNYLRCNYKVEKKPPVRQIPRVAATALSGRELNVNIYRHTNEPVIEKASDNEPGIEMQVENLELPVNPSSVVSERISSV
Procedure: as §1, §2

GPR119 = target: T5, GPR119 (Homo sapiens, UniProt Q8TDV5); assay: PathHunter β-arrestin GpcrMAX assay; type: cell-based
T5 construct: host or cells: HEK293
Procedure: as §1, §2

HTR2A = target: T6, HTR2A (Homo sapiens, UniProt P28223); assay: PathHunter β-arrestin GpcrMAX assay; type: cell-based
T6 construct: host or cells: U2OS
Procedure: as §1, §2

NPSR1b = target: T7, NPSR1b (Homo sapiens, UniProt Q6W5P4); assay: PathHunter β-arrestin GpcrMAX assay; type: cell-based
T7 construct: β-galactosidase enzyme fragment for EFC (ProLink by own knowledge); host or cells: U2OS
Procedure: as §1, §2

[1] = target: T8, human recombinant cannabinoid CNR1 receptors (Homo sapiens, UniProt P21554); assay: Competitive radioligand binding assay ([3H]SR141716A); details: 2 nM [3H]SR141716A, 60 min, 37 °C, Chem-1 cell membranes
T8 construct: host or cells: rat hematopoietic Chem-1 cells (membrane homogenate)
Procedure: (a) Competitive radioligand binding assay of 4 to CNR1. Membrane homogenate of rat hematopoietic Chem-1 cells expressing human recombinant CNR1 receptors is incubated with 2 nM [3H]SR141716A for 60 min at 37 °C. […] (b) Effect of 4 in CNR1 cAMP functional assay in agonist and antagonist mode. Experiments were carried out as technical duplicates. Data are presented as mean ± SD (n = 2).
The assay was carried out by Eurofins Panlabs Discovery Services (New Taipei City, Taiwan). Human recombinant cannabinoid CNR1 receptors expressed in rat hematopoietic Chem-1 cells were used in modified HEPES buffer (50 mM HEPES, pH 7.4, 5 mM MgCl2, 1 mM CaCl2, 0.2% BSA). A 5 µg aliquot of membrane homogenate was incubated with 2 nM [^3H]SR141716A for 60 min at 37 °C. […] Membranes were filtered and washed four times and the filters were counted to determine [^3H]SR141716A as specifically bound. Compound 4 was screened at 8 concentrations, where the highest concentration was 50 µM. […] The experiments were carried out as technical duplicates.

[2] = antagonist dose–response, 10-point, CHO-K1 cells, 30 min
[3] = antagonist mode (% inhibition), 20 µM
[4] = antagonist dose–response, 10-point, U2OS cells, 30 min

T5 sequence (Q8TDV5 whole entry): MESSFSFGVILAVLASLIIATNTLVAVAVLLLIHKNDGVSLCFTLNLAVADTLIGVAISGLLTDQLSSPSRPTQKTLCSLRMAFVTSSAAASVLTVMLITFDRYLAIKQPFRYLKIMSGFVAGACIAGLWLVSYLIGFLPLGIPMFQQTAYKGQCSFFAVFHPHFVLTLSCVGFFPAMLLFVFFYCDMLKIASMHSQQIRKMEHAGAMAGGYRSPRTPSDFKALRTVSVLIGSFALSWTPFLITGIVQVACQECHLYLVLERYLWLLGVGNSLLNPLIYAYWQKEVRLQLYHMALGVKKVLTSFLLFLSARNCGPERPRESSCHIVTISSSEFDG
T6 sequence (P28223 whole entry): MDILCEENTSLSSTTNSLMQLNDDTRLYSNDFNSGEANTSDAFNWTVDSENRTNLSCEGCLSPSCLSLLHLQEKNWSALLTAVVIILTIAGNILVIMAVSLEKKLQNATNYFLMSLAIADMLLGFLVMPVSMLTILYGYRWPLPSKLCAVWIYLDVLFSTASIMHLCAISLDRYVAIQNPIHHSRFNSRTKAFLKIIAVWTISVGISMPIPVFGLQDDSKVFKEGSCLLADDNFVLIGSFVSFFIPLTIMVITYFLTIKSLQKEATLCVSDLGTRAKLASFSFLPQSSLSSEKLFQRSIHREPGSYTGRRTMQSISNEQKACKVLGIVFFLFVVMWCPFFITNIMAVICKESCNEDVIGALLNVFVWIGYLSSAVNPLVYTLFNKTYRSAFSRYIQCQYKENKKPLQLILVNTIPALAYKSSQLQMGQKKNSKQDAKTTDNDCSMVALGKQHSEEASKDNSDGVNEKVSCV
T7 sequence (Q6W5P4 1-377 isoform Q6W5P4-4): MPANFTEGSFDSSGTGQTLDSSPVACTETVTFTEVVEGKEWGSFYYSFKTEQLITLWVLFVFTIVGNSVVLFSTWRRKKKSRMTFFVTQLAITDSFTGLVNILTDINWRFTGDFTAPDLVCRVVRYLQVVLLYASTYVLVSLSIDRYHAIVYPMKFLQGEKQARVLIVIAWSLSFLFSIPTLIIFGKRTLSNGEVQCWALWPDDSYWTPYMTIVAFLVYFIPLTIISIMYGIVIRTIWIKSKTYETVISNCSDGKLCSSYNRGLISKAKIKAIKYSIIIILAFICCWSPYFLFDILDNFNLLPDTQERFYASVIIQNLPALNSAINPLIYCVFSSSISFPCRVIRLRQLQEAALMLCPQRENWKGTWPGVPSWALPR
T8 sequence (P21554 whole entry): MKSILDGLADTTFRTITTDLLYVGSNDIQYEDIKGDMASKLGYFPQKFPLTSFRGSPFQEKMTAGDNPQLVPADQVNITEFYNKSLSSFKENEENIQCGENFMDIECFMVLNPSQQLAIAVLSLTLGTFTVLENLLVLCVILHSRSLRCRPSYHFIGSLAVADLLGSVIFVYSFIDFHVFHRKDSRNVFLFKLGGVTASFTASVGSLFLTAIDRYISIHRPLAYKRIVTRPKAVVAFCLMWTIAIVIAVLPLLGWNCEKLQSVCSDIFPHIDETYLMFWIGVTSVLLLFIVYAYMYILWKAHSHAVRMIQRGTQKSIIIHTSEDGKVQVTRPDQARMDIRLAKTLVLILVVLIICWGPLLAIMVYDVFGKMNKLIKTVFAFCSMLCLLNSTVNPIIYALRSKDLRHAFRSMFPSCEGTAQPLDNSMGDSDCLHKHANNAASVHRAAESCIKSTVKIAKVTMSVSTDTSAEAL
T3 sequence (P34972 whole entry): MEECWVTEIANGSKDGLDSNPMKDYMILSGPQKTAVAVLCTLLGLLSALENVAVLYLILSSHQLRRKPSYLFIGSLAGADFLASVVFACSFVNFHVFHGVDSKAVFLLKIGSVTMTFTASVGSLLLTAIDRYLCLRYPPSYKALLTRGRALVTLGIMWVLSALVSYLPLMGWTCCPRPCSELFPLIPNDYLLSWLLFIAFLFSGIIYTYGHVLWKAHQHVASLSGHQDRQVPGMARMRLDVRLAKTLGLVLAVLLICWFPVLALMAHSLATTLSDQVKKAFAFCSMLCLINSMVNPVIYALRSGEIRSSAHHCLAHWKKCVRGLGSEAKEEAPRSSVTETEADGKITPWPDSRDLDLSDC

- IC50 (CCR9; [2]): 7.4 µM and 7.38 µM
- inhibition (CCR9; [3]): ≥ 80%
- inhibition at 20 µM (CCR9; [3]): 98.9%
- IC50 (CHRM4; [2]): 1.9 µM and 1.92 µM
- inhibition (CHRM4; [3]): ≥ 80%
- inhibition at 20 µM (CHRM4; [3]): 98.2%
- inhibition at 20 µM (CNR2): 48.6%
- IC50 (HTR2C; [4]): > 50 µM
- inhibition (HTR2C; [3]): ≥ 80%
- inhibition at 20 µM (HTR2C; [3]): 99.1%
- IC50 (GPR119; antagonist dose–response, 10-point, HEK293 cells, 30 min): 11.7 µM
- inhibition (GPR119; [3]): 114% and ≥ 80%
- IC50 (HTR2A; [4]): 4.8 µM and 4.83 µM
- inhibition (HTR2A; [3]): ≥ 80%
- inhibition at 20 µM (HTR2A; [3]): 84.9%
- IC50 (NPSR1b; [4]): 4.4 µM and 4.36 µM
- inhibition (NPSR1b; [3]): 102% and ≥ 80%
- IC50 [1]: 37.7 µM
- Ki [1]: 34 µM
Structure (SMILES): CC(=O)N[C@@H](CCCC#C/C=C/Cl)CCCCCCC(Cl)Cl [Compound 4, taveuniamide F]
